Converted amounts (≈) assume the structure as drawn.
Columns and labels:
Type in all cases: functional
[1] = test system: Trichophyton mentagrophytes; test: Antifungal activity against Trichophyton mentagrophytes by broth microdilution method
[2] = test system: Aspergillus fumigatus; test: Antifungal activity against Aspergillus fumigatus by broth microdilution method
[3] = test system: Cryptococcus neoformans; test: Antifungal activity against Cryptococcus neoformans by broth microdilution method
[4] = test system: Candida albicans; test: Antifungal activity against Candida albicans by broth microdilution method
[5] = test system: Candida parapsilosis; test: Antifungal activity against Candida parapsilosis by broth microdilution method; conditions: Lodderomyces parapsilosis
[6] = test system: Sporothrix schenckii; test: Antifungal activity against Sporothrix schenckii by broth microdilution method
[7] = test system: Klebsiella pneumoniae; test: Antibacterial activity against Klebsiella pneumoniae ATCC 27736 by micro-broth dilution method
[8] = test system: Candida albicans; test: Ratio of miconazole MIC50 to compound MIC50 for Candida albicans
[9] = test system: Pseudomonas aeruginosa; test: Antibacterial activity against Pseudomonas aeruginosa by micro-broth dilution method
[10] = test system: Escherichia coli; test: Antibacterial activity against Escherichia coli by micro-broth dilution method
[11] = test system: Staphylococcus aureus; test: Antibacterial activity against Staphylococcus aureus ATCC 25923 by micro-broth dilution method
[12] = test system: Trichophyton mentagrophytes; test: Ratio of fluconazole MIC50 to compound MIC50 for Trichophyton mentagrophytes
[13] = test system: Trichophyton mentagrophytes; test: Ratio of amphotericin-B MIC50 to compound MIC50 for Trichophyton mentagrophytes
[14] = test system: Candida parapsilosis; test: Ratio of 2-chloro-3-(4-hydroxyphenylamino)naphthalene-1,4-dione MIC50 to compound MIC50 for Candida parapsilosis
[15] = test system: Candida parapsilosis; test: Ratio of 2-Chloro-3-phenylsulfanyl-[1,4]naphthoquinone MIC50 to compound MIC50 for Candida parapsilosis
[16] = test system: Cryptococcus neoformans; test: Ratio of miconazole MIC50 to compound MIC50 for Cryptococcus neoformans

Compound	MIC [1]	MIC [2]	MIC [3]	MIC [4]	MIC [5]	MIC [6]	MIC [7]	Ratio [8]	MIC [9]	MIC [10]	MIC [11]	Ratio [12]	Ratio [13]	Ratio [14]	Ratio [15]	Ratio [16]
OC(Cn1cncn1)(Cn1cncn1)c1ccc(F)cc1F [FLUCONAZOLE]	1.56 µg/mL (≈ 5.09 µM)	2 µg/mL (≈ 6.53 µM)	0.5 µg/mL (≈ 1.63 µM)	1 µg/mL (≈ 3.27 µM)	1 µg/mL (≈ 3.27 µM)	2 µg/mL (≈ 6.53 µM)										
O=C1C(Cl)=C(Oc2cccc3ccccc23)C(=O)c2ccccc21	1.56 µg/mL (≈ 4.66 µM)	> 50 µg/mL	25 µg/mL (≈ 74.7 µM)	12.5 µg/mL (≈ 37.3 µM)	12.5 µg/mL (≈ 37.3 µM)	1.56 µg/mL (≈ 4.66 µM)	> 50 µg/mL	2	> 50 µg/mL	50 µg/mL (≈ 149 µM)	25 µg/mL (≈ 74.7 µM)					
Cc1ccc(OC2=C(Nc3ccccc3)C(=O)c3ccccc3C2=O)cc1	0.78 µg/mL (≈ 2.19 µM)	50 µg/mL (≈ 141 µM)	12.5 µg/mL (≈ 35.2 µM)	12.5 µg/mL (≈ 35.2 µM)	12.5 µg/mL (≈ 35.2 µM)	1.56 µg/mL (≈ 4.39 µM)	> 50 µg/mL		> 50 µg/mL	50 µg/mL (≈ 141 µM)	50 µg/mL (≈ 141 µM)	2	2			
GENTAMICIN							0.78 µg/mL		0.39 µg/mL	0.18 µg/mL	0.78 µg/mL					
Cc1ccc(OC2=C(Sc3ccccc3)C(=O)c3ccccc3C2=O)cc1	0.78 µg/mL (≈ 2.09 µM)	> 50 µg/mL	12.5 µg/mL (≈ 33.6 µM)	25 µg/mL (≈ 67.1 µM)	12.5 µg/mL (≈ 33.6 µM)	1.56 µg/mL (≈ 4.19 µM)	> 50 µg/mL		> 50 µg/mL	> 50 µg/mL	25 µg/mL (≈ 67.1 µM)	2	2			
Cc1cc2c(cc1OC1=C(O)C(=O)c3ccccc3C1=O)C(=O)c1ccccc1C2=O [NEWBOULDIAQUINONE A]				4.88 µg/mL (≈ 11.9 µM)												
Cc1ccc(OC2=C(Sc3ccc(C)cc3)C(=O)c3ccccc3C2=O)cc1	1.56 µg/mL (≈ 4.04 µM)	> 50 µg/mL	12.5 µg/mL (≈ 32.3 µM)	25 µg/mL (≈ 64.7 µM)	25 µg/mL (≈ 64.7 µM)	3.12 µg/mL (≈ 8.07 µM)	> 50 µg/mL		> 50 µg/mL	> 50 µg/mL	12.5 µg/mL (≈ 32.3 µM)					
Cc1cc(C)cc(OC2=C(Cl)C(=O)c3ccccc3C2=O)c1	1.56 µg/mL (≈ 4.99 µM)	50 µg/mL (≈ 160 µM)	12.5 µg/mL (≈ 40 µM)	12.5 µg/mL (≈ 40 µM)	3.12 µg/mL (≈ 9.98 µM)	1.56 µg/mL (≈ 4.99 µM)	> 50 µg/mL		> 50 µg/mL	50 µg/mL (≈ 160 µM)	25 µg/mL (≈ 79.9 µM)			2	2	
O=C1C(Cl)=C(Oc2ccc3ccccc3c2)C(=O)c2ccccc21	50 µg/mL (≈ 149 µM)	50 µg/mL (≈ 149 µM)	> 50 µg/mL	> 50 µg/mL	> 50 µg/mL	> 50 µg/mL	> 50 µg/mL		> 50 µg/mL	> 50 µg/mL	> 50 µg/mL					
O=C1C(Cl)=C(Nc2ccc(O)cc2)C(=O)c2ccccc21	1.56 µg/mL (≈ 5.2 µM)	3.12 µg/mL (≈ 10.4 µM)	0.78 µg/mL (≈ 2.6 µM)	1.56 µg/mL (≈ 5.2 µM)	6.25 µg/mL (≈ 20.9 µM)	1.56 µg/mL (≈ 5.2 µM)										
O=C1C(Cl)=C(Oc2ccccc2OC2=C(Cl)C(=O)c3ccccc3C2=O)C(=O)c2ccccc21	50 µg/mL (≈ 102 µM)	> 50 µg/mL	> 50 µg/mL	50 µg/mL (≈ 102 µM)	50 µg/mL (≈ 102 µM)	25 µg/mL (≈ 50.9 µM)	> 50 µg/mL		> 50 µg/mL	> 50 µg/mL	> 50 µg/mL					
O=C1C(Cl)=C(Oc2ccccc2)C(=O)c2ccccc21	0.78 µg/mL (≈ 2.74 µM)	50 µg/mL (≈ 176 µM)	6.25 µg/mL (≈ 22 µM)	12.5 µg/mL (≈ 43.9 µM)	12.5 µg/mL (≈ 43.9 µM)	3.12 µg/mL (≈ 11 µM)	> 50 µg/mL		> 50 µg/mL	> 50 µg/mL	50 µg/mL (≈ 176 µM)	2	2			2
